# “And” between values parts separate entries of the source, which are not always exact repeats. Identical values can stand only once.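 Cultured in 96-well plates, cells were exposed to test compound for 48 hours across five concentrations. At the GI50, growth is halved. TGI: concentration producing complete growth inhibition.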
# Legend:
# Assay in all cases: NCI-60 cell line screen, 48 h
# OVCAR-5 ovarian = tested on: OVCAR-5 ovarian
# SK-OV-3 ovarian = tested on: SK-OV-3 ovarian
# SF-295 CNS = tested on: SF-295 CNS
# EKVX NSCLC = tested on: EKVX NSCLC
# SN12C renal = tested on: SN12C renal
# UO-31 renal = tested on: UO-31 renal
# SF-268 CNS = tested on: SF-268 CNS
# ACHN renal = tested on: ACHN renal
# IGROV1 ovarian = tested on: IGROV1 ovarian
# KM12 colon = tested on: KM12 colon
# LOX IMVI melanoma = tested on: LOX IMVI melanoma
# OVCAR-8 ovarian = tested on: OVCAR-8 ovarian
# K-562 leukemia = tested on: K-562 leukemia
# SK-MEL-28 melanoma = tested on: SK-MEL-28 melanoma
# TK-10 renal = tested on: TK-10 renal
# MOLT-4 leukemia = tested on: MOLT-4 leukemia
# DLD-1 colon = tested on: DLD-1 colon
# KM20L2 colon = tested on: KM20L2 colon
# SR leukemia = tested on: SR leukemia
# SNB-75 CNS = tested on: SNB-75 CNS
# OVCAR-4 ovarian = tested on: OVCAR-4 ovarian
# CCRF-CEM leukemia = tested on: CCRF-CEM leukemia
# HOP-18 NSCLC = tested on: HOP-18 NSCLC
# SW-620 colon = tested on: SW-620 colon
# DMS 114 small cell lung = tested on: DMS 114 small cell lung
# CAKI-1 renal = tested on: CAKI-1 renal
# SF-539 CNS = tested on: SF-539 CNS
# A549 NSCLC = tested on: A549 NSCLC
# M14 melanoma = tested on: M14 melanoma
# HL-60(TB) leukemia = tested on: HL-60(TB) leukemia
# SNB-19 CNS = tested on: SNB-19 CNS
# XF 498 CNS = tested on: XF 498 CNS
# HCT-116 colon = tested on: HCT-116 colon
# HCT-15 colon = tested on: HCT-15 colon
# SK-MEL-5 melanoma = tested on: SK-MEL-5 melanoma
# M19-MEL melanoma = tested on: M19-MEL melanoma
# U251 CNS = tested on: U251 CNS
# NCI-H460 lung = tested on: NCI-H460 lung
# RPMI-8226 leukemia = tested on: RPMI-8226 leukemia
# MALME-3M melanoma = tested on: MALME-3M melanoma
# UACC-257 melanoma = tested on: UACC-257 melanoma
# COLO 205 colon = tested on: COLO 205 colon
# NCI-H226 lung = tested on: NCI-H226 lung
# HCC-2998 colon = tested on: HCC-2998 colon
# DMS 273 small cell lung = tested on: DMS 273 small cell lung
# SK-MEL-2 melanoma = tested on: SK-MEL-2 melanoma
# RXF-631 renal = tested on: RXF-631 renal
# LXFL 529 NSCLC = tested on: LXFL 529 NSCLC
# SNB-78 CNS = tested on: SNB-78 CNS
# HOP-92 NSCLC = tested on: HOP-92 NSCLC
# 786-0 renal = tested on: 786-0 renal
# NCI-H23 lung = tested on: NCI-H23 lung
# UACC-62 melanoma = tested on: UACC-62 melanoma
# OVCAR-3 ovarian = tested on: OVCAR-3 ovarian
# HT29 colon = tested on: HT29 colon
# HOP-62 NSCLC = tested on: HOP-62 NSCLC
# NCI-H522 lung = tested on: NCI-H522 lung
# A498 renal = tested on: A498 renal
# RXF 393 renal = tested on: RXF 393 renal
structure (smiles),measurement,setting,value
CNc1ccccc1-c1nc2ccccc2c(=O)o1,TGI,OVCAR-5 ovarian,> 100 µM
same,TGI,SK-OV-3 ovarian,> 100 µM
same,TGI,SF-295 CNS,> 100 µM
same,TGI,EKVX NSCLC,> 100 µM
same,TGI,SN12C renal,> 100 µM
same,TGI,UO-31 renal,> 100 µM
same,TGI,SF-268 CNS,> 100 µM
same,TGI,ACHN renal,> 100 µM
same,TGI,IGROV1 ovarian,> 100 µM
same,TGI,KM12 colon,> 100 µM
same,TGI,LOX IMVI melanoma,> 100 µM
same,TGI,OVCAR-8 ovarian,> 100 µM
same,TGI,K-562 leukemia,> 100 µM
same,TGI,SK-MEL-28 melanoma,> 100 µM
same,TGI,TK-10 renal,> 100 µM
same,TGI,MOLT-4 leukemia,> 100 µM
same,TGI,DLD-1 colon,> 100 µM
same,TGI,KM20L2 colon,> 100 µM
same,TGI,SR leukemia,> 100 µM
same,TGI,SNB-75 CNS,97.6 µM
same,TGI,OVCAR-4 ovarian,> 100 µM
same,TGI,CCRF-CEM leukemia,> 100 µM
same,TGI,HOP-18 NSCLC,> 100 µM
same,TGI,SW-620 colon,> 100 µM
same,TGI,DMS 114 small cell lung,> 100 µM
same,TGI,CAKI-1 renal,> 100 µM
same,TGI,SF-539 CNS,> 100 µM
same,TGI,A549 NSCLC,> 100 µM
same,TGI,M14 melanoma,> 100 µM
same,TGI,HL-60(TB) leukemia,> 100 µM
same,TGI,SNB-19 CNS,> 100 µM
same,TGI,XF 498 CNS,> 100 µM
same,TGI,HCT-116 colon,> 100 µM
same,TGI,HCT-15 colon,> 100 µM
same,TGI,SK-MEL-5 melanoma,> 100 µM
same,TGI,M19-MEL melanoma,> 100 µM
same,TGI,U251 CNS,> 100 µM
same,TGI,NCI-H460 lung,> 100 µM
same,TGI,RPMI-8226 leukemia,> 100 µM
same,TGI,MALME-3M melanoma,> 100 µM
same,TGI,UACC-257 melanoma,> 100 µM
same,TGI,COLO 205 colon,> 100 µM
same,TGI,NCI-H226 lung,> 100 µM
same,TGI,HCC-2998 colon,> 100 µM
same,TGI,DMS 273 small cell lung,> 100 µM
same,TGI,SK-MEL-2 melanoma,> 100 µM
same,TGI,RXF-631 renal,> 100 µM
same,TGI,LXFL 529 NSCLC,> 100 µM
same,TGI,SNB-78 CNS,> 100 µM
CCOC(=O)C12CCCC1(O)N(NC(N)=O)C(C)=C2C(=O)OC (centres undefined),TGI,OVCAR-5 ovarian,> 100 µM
same,TGI,SK-OV-3 ovarian,> 100 µM
same,TGI,SF-295 CNS,> 100 µM
same,TGI,EKVX NSCLC,> 100 µM
same,TGI,SN12C renal,> 100 µM
same,TGI,HOP-92 NSCLC,> 100 µM
same,TGI,UO-31 renal,> 100 µM
same,TGI,SF-268 CNS,> 100 µM
same,TGI,ACHN renal,> 100 µM
same,TGI,IGROV1 ovarian,> 100 µM
same,TGI,KM12 colon,> 100 µM
same,TGI,LOX IMVI melanoma,> 100 µM
same,TGI,OVCAR-8 ovarian,> 100 µM
same,TGI,786-0 renal,> 100 µM
same,TGI,K-562 leukemia,> 100 µM
same,TGI,SK-MEL-28 melanoma,> 100 µM
same,TGI,TK-10 renal,> 100 µM
same,TGI,MOLT-4 leukemia,> 100 µM
same,TGI,DLD-1 colon,> 100 µM
same,TGI,KM20L2 colon,> 100 µM
same,TGI,OVCAR-4 ovarian,> 100 µM
same,TGI,CCRF-CEM leukemia,> 100 µM
same,TGI,HOP-18 NSCLC,> 100 µM
same,TGI,SW-620 colon,> 100 µM
same,TGI,NCI-H23 lung,> 100 µM
same,TGI,DMS 114 small cell lung,> 100 µM
same,TGI,CAKI-1 renal,> 100 µM
same,TGI,UACC-62 melanoma,> 100 µM
same,TGI,OVCAR-3 ovarian,> 100 µM
same,TGI,SF-539 CNS,> 100 µM
same,TGI,A549 NSCLC,> 100 µM
same,TGI,M14 melanoma,> 100 µM
same,TGI,HL-60(TB) leukemia,> 100 µM
same,TGI,SNB-19 CNS,> 100 µM
same,TGI,XF 498 CNS,> 100 µM
same,TGI,HCT-116 colon,> 100 µM
same,TGI,HT29 colon,> 100 µM
same,TGI,HCT-15 colon,> 100 µM
same,TGI,M19-MEL melanoma,> 100 µM
same,TGI,U251 CNS,> 100 µM
same,TGI,NCI-H460 lung,> 100 µM
same,TGI,HOP-62 NSCLC,> 100 µM
same,TGI,RPMI-8226 leukemia,> 100 µM
same,TGI,NCI-H522 lung,> 100 µM
same,TGI,MALME-3M melanoma,> 100 µM
same,TGI,UACC-257 melanoma,> 100 µM
same,TGI,COLO 205 colon,> 100 µM
same,TGI,NCI-H226 lung,> 100 µM
same,TGI,HCC-2998 colon,> 100 µM
same,TGI,DMS 273 small cell lung,> 100 µM
same,TGI,SK-MEL-2 melanoma,> 100 µM
same,TGI,RXF-631 renal,> 100 µM
same,TGI,A498 renal,> 100 µM
same,TGI,LXFL 529 NSCLC,> 100 µM
same,TGI,SNB-78 CNS,> 100 µM
COC1OC(COC(C)=O)C(OC(C)=O)C(OC(C)=O)C1NC(=O)N(CCCl)N=O (centres undefined),TGI,OVCAR-5 ovarian,> 100 µM
same,TGI,SK-OV-3 ovarian,> 100 µM
same,TGI,SF-295 CNS,> 100 µM
same,TGI,EKVX NSCLC,> 100 µM
same,TGI,SN12C renal,> 100 µM
same,TGI,SF-268 CNS,> 100 µM
same,TGI,ACHN renal,> 100 µM
same,TGI,IGROV1 ovarian,> 100 µM
same,TGI,KM12 colon,> 100 µM
same,TGI,LOX IMVI melanoma,> 100 µM
same,TGI,OVCAR-8 ovarian,> 100 µM
same,TGI,786-0 renal,> 100 µM
same,TGI,K-562 leukemia,> 100 µM
same,TGI,SK-MEL-28 melanoma,> 100 µM
same,TGI,TK-10 renal,> 100 µM
same,GI50,MOLT-4 leukemia,26.2 µM and > 100 µM
same,TGI,MOLT-4 leukemia,> 100 µM
same,TGI,DLD-1 colon,> 100 µM
same,TGI,KM20L2 colon,> 100 µM
same,TGI,SNB-75 CNS,> 100 µM
same,TGI,OVCAR-4 ovarian,> 100 µM
same,GI50,CCRF-CEM leukemia,15.2 µM and 90.3 µM
same,TGI,CCRF-CEM leukemia,> 100 µM
same,TGI,HOP-18 NSCLC,> 100 µM
same,TGI,SW-620 colon,> 100 µM
same,TGI,NCI-H23 lung,> 100 µM
same,TGI,DMS 114 small cell lung,> 100 µM
same,TGI,CAKI-1 renal,> 100 µM
same,TGI,UACC-62 melanoma,> 100 µM
same,TGI,OVCAR-3 ovarian,> 100 µM
same,GI50,SF-539 CNS,> 100 µM and 24.7 µM
same,TGI,SF-539 CNS,> 100 µM and 91.7 µM
same,TGI,A549 NSCLC,> 100 µM
same,TGI,M14 melanoma,> 100 µM
same,TGI,HL-60(TB) leukemia,74 µM and > 100 µM
same,TGI,SNB-19 CNS,> 100 µM
same,TGI,XF 498 CNS,> 100 µM
same,TGI,HCT-116 colon,> 100 µM
same,TGI,HT29 colon,> 100 µM
same,TGI,SK-MEL-5 melanoma,> 100 µM
same,TGI,M19-MEL melanoma,> 100 µM
same,TGI,NCI-H460 lung,> 100 µM
same,TGI,NCI-H522 lung,> 100 µM
same,TGI,MALME-3M melanoma,> 100 µM
same,TGI,UACC-257 melanoma,> 100 µM
same,TGI,COLO 205 colon,> 100 µM
same,TGI,NCI-H226 lung,> 100 µM
same,TGI,HCC-2998 colon,> 100 µM
same,TGI,DMS 273 small cell lung,> 100 µM
same,TGI,SK-MEL-2 melanoma,> 100 µM
same,TGI,RXF-631 renal,> 100 µM
same,TGI,A498 renal,> 100 µM
same,TGI,LXFL 529 NSCLC,> 100 µM
same,TGI,SNB-78 CNS,> 100 µM
same,TGI,RXF 393 renal,> 100 µM

# Source: PubChem BioAssay (NCI)
